# Results reported in patent publication US20230141284A1, “CANCER THERAPEUTIC METHOD” (ONO PHARMACEUTICAL CO., LTD., priority 2020, published 2023).
# Legend:
# [1] = tested on: BTK, KDR, each subtype of PKCa to t, each CDK of CDK2 to 9, FAK, TIE2, RAF1 and BRAF; assay: Inhibitory activity against various kinases (mobility shift, LabChip); assay type: biochemical; details: 4 μmol/L test substance solution (4 times the final concentration)
# Description: 4 μmol/L of the test substance solution (the compound pertaining to the present invention produced in Example 1) (at 4 times the final concentration) was prepared by dissolving it to the assay buffer (20 mmol/L HEPES, 0.01% Triton X-100, 1 mmol/L DTT, pH 7.5). 4 μmol/L of the substrate/ATP/metal solution (at 4 times the final concentration) was prepared by dissolving it to the kit buffer (20 mmol/L HEPES, 0.01% Triton X-100, 5 mmol/L DTT, pH 7.5). Various kinase solutions at twice the final concentration were prepared by dissolving them to the assay buffer. 5 μL of the test substance solution, 5 μL of the substrate/ATP/metal solution and 10 μL of the kinase solution were mixed in wells of a polypropylene 384-well plate, and the mixture thereof was reacted at room temperature for 1 to 5 hours. The reaction was stopped by adding 70 μL of the termination buffer (QuickScout Screening Assist MSA; Carna Biosciences). The substrate peptide and phosphorylated peptide in the reaction solution were separated and quantified by LabChip system (Perkin Elmer). The kinase reaction was evaluated based on the product ratio (P/(P+S)) calculated from the peak height (S) of the substrate peptide and the peak height (P) of the phosphorylated peptide. The various kinases used in this evaluation are as follows: BTK, KDR, each subtype of PKCa to t, each CDK of CDK2 to 9, FAK, TIE2, RAF1 and BRAF.
# [2] = tested on: IRF pathway; assay: Verification of STING agonistic activity (IRF pathway in cells of PCT/EP2017/59781); assay type: cell-based; details: cells described in PCT/EP2017/59781, about 24 hours incubation
# Description: The cells described at lines 37-39 on page 18 in the publication of PCT application with application number PCT/EP2017/59781 were suspended in RPMI medium to prepare 2×10^6 cells/mL cell suspension. 50 μL of cell suspensions were dispensed into a 96-well plate, to which 50 μL of 6 to 20,000 nM compound solutions were further added, followed by incubation at 37° C. for about 24 hours. 10 μL of the cell suspensions were collected from each well, which were mixed with 50 μL of Quanti-luc (Invivogen), and then the activity of the IRF pathway was measured by detecting luminescence using a microplate reader.
# [3] = molecular target: T1, IDO1 (Homo sapiens, UniProt P14902); assay: IDO1 inhibitory activity (IDO1 Fluorogenic Inhibitor Screening Assay Kit); assay type: biochemical; details: compound solutions of 0.6 to 200 μmol/L added
# T1 construct: His-tag; purchased BPS Bioscience
# T1 sequence (P14902 whole entry): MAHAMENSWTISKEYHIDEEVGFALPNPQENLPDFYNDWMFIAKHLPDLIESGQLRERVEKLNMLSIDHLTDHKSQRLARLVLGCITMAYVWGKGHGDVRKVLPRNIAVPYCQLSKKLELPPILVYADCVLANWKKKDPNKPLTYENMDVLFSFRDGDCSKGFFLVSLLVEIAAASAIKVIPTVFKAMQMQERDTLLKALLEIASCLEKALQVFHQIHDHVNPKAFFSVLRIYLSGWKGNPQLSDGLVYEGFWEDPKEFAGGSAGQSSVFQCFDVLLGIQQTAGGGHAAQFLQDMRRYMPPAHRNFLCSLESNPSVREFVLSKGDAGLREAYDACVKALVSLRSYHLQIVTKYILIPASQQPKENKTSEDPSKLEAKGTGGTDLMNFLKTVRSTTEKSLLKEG
# Description: The evaluation of IDO1 inhibitory activity was carried out using the IDO1 Fluorogenic Inhibitor Screening Assay Kit (BPS Bioscience). Specifically, IDO1 Fluorogenic Reaction Solution was dissolved, of which 180 μL were added to each well. Then, 10 μL of the compounds at the respective concentrations of 0.6, 2, 6, 20, 60 and 200 μmol/L were added thereto. Further, after adding 10 μL of IDO1 His-Tag solution thereto, and the mixture thereof was incubated at room temperature for 1 hour, and then 20 μL of Fluorescence Solution was added thereto, and the mixture thereof was incubated at 37° C. for 4 hours. After standing them at room temperature for 10 minutes, the fluorescence was measured using a microplate reader (excitation: 400 nm, emission: 510 nm).
# [4] = tested on: colon cancer cell line MC38; assay: Anti-tumor effect in subcutaneously colon cancer cell line MC38 tumor-bearing mouse model (Example 17); assay type: in vivo, mice (C57/BL6); details: 3 mg/kg, administered 7 days after transplantation, measured until Day 26
# Description: Seven days after transplantation, the subcutaneously MC38 tumor-bearing mice were grouped based on tumor volume, and the Vehicle group (n=8) and group to which the compound shown in Example 1 (3 mg/kg, n=6) was administered were set. The changes in tumor volume were continuously measured until 26 days after transplantation (Day 26). The tumor volume was calculated by the following formula:
# [Tumor volume (mm^3)]=[major axis (mm)]×[minor axis (mm)]^2×0.5
# [5] = tested on: colon cancer cell line MC38; assay: Compound A and anti-PD-1 antibody 4H2 in MC38 tumor-bearing mouse model (Example 21); assay type: in vivo, mice (C57/BL6)
# Description: Compound A was administered intravenously once 8 days after transplantation, and the anti-PD-1 antibody 4H2 was administered intraperitoneally 4 times every 6 days since 8 days after transplantation. • Vehicle (n=9), • Compound A (0.1 mg/kg; n=9), • Anti-PD-1 antibody 4H2 (10 mg/kg (but 20 mg/kg only in the first dosage); n=9), and • Compound A (0.1 mg/kg) and anti-PD-1 antibody 4H2 (10 mg/kg (but 20 mg/kg only in the first dosage); n=9).
# FIGS. 6 and 7 show results thereof.
# [6] = tested on: melanoma cell line B16F10; assay: Combination experiments in subcutaneously melanoma cell line B16F10 tumor-bearing mice model (Example 23); assay type: in vivo, mice (C57/BL6); details: until Day 30
# Description: • Vehicle and control antibody (rIgG1) (n=8 or 6), • Compound A (0.3 mg/kg) and control antibody (rIgG1) (n=6), • Anti-PD-1 antibody 4H2 (10 mg/kg (but 20 mg/kg only in the first dose only); n=6), and • Compound A (0.3 mg/kg) and anti-PD-1 antibody 4H2 (10 mg/kg (but 20 mg/kg only for the first dosage)) (n=6).
# In the Combination Experiment 1, Compound A was administered once 10 days after transplantation while the anti-PD-1 antibody 4H2 and control antibody were administered 4 times every 6 days since 10 days after transplantation, respectively.
# • Vehicle and control antibody (rIgG1) (n=8 or 6), • Compound A (0.3 mg/kg) and control antibody (rIgG1) (n=6), • Anti-VEGFR2 antibody DC101 (BioXCell) (10 mg/kg; n=6), and • Compound A (0.3 mg/kg) and anti-VEGFR2 antibody DC101 (10 mg/kg) (n=6).
# In the Combination Experiment 2, Compound A was administered 4 times every 7 days since 10 days after transplantation while anti-VEGFR2 antibody DC101 and control antibody were administered 7 times every 3 or 4 days once 10 days after transplantation, respectively.
# Vehicle and Compound A were administered intravenously while control antibody, anti-PD-1 antibody, and anti-VEGFR2 antibody were administered intraperitoneally, respectively.
# FIGS. 9 and 10 show results thereof.
# [7] = Conversion of a prodrug to its active body (Compound B) in human plasma; assay type: in vitro ADME; details: 1 μmol/L, 37° C., 60 minutes
# Description: (§1) The solutions of the example compounds in Table 2 below (50 μmol/L, 50% acetonitrile with 5% DMSO) were added to plasma (245 μL), respectively, such that the final concentrations thereof become 1 μmol/L. After keeping them the temperature at 37° C. for 60 minutes, 40 μL of the reaction solutions were taken therefrom, and added to 200 μL of acetonitrile/ethanol (7:3) containing Candesartan (internal standard).
# (§2) The concentration of the compound prepared in Example 3 (Compound B) in the plasma resulting from the above reaction was analyzed by LC-MS/MS according to the following method.
# (§3) The whole amount was transferred to a filter plate for protein removal and filtered by suction, and the filtrate thereof was diluted 2-fold with water. [LC column] Shim-pack XR-ODSII 2.0 mm ID×75 mm (Shimadzu Corporation) [LC condition] Column temperature: 40° C. Mobile phase: A: 0.2% formic acid in 5 mM ammonium acetate solution; and
# (§4) [MS conditions] Electrospray, positive mode, multiple reaction monitoring; MS monitor ion: Compound B: m/z353.0→m/z311.2, DP: 80, CE: 35; and Candesartan (internal standard): m/z309.1→m/z163.0, DP: 71, CE: 21.
# (§5) A regression formula was calculated from the peak area ratio (peak area of Compound B/peak area of Candesartan) of the real sample and the standard sample for the calibration curve in the same matrix, and the peak area ratio of the real sample was substituted into the regression formula to calculate the quantitative value. 60 minutes later, the concentration of Compound B in the sample was compared, and the conversion rate (%) thereof was calculated using the following formula:
# (§6) Conversion rate (%)=Concentration of Compound B in the sample after 60 minutes (μmol/L)×100
# [8] = tested on: human acute myeloid leukemia cell line MV4-11; assay: Anti-tumor effect in subcutaneously tumor model bearing human acute myeloid leukemia cell line MV4-11; assay type: in vivo; details: dosages of 1.0 mg/kg and 3.0 mg/kg; immunodeficient mice; until Day 28
# Description: They were grouped based on tumor volume 6 days after transplantation, and Compound A (0.3, 1.0, and 3.0 mg/kg, respectively; n=8) and Vehicle (n=8) were administered to the subcutaneously tumor-bearing mice, respectively.
# [9] = Conversion of a prodrug to its active body (Compound B) in mouse plasma; assay type: in vitro ADME; details: 1 μmol/L, 37° C., 60 minutes
# Description: as §1, §2, §3, §4, §5, §6
IDO1 inhibitory activity [3],Plasma conversion rate Human [7],Plasma conversion rate Mouse [9],SMILES,inhibitory activity against various kinases [1],IRF activating effect [2],tumor growth (tumor volume) [4],"tumor-reducing effect ([5]; Compound A 0.1 mg/kg combined with anti-PD-1 antibody 4H2, 28 days after transplantation)",anti-tumor effect observed with anti-PD-1 antibody alone ([5]; Compound A 0.1 mg/kg i.v. once combined with anti-PD-1 antibody 4H2 10 mg/kg (20 mg/kg first dosage)),number with complete tumor remission ([5]; combination of Compound A (0.1 mg/kg) and the anti-PD-1 antibody),anti-tumor effect of anti-VEGFR2 antibody ([6]; Compound A 0.3 mg/kg 4 times every 7 days combined with anti-VEGFR2 antibody DC101 10 mg/kg),anti-tumor effect of anti-PD-1 antibody ([6]; Compound A 0.3 mg/kg once combined with anti-PD-1 antibody 4H2 10 mg/kg (20 mg/kg first dosage)),tumor growth (tumor volume) [8]
no IDO1 inhibitory activity,–,–,"COC(=O)c1cc(-c2ncc(-c3cn[nH]c3)c3onc(N)c23)c(F)cc1N [Example 1, methyl 2-amino-5-(3-amino-7-(1H-pyrazol-4-yl)isoxazolo[4,5-c]pyridin-4-yl)-4-fluorobenzoate]",no significantly inhibit activities,no IRF activating effect,almost completely suppressed the tumor growth,–,–,–,–,–,–
–,+ + +,+ + +,"CC(=O)c1cc(-c2ncc(-c3cnn(COP(=O)(O)O)c3)c3onc(N)c23)c(F)cc1N [Example 10(1), (4-(4-(5-acetyl-4-amino-2-fluorophenyl)-3-aminoisoxazolo[4,5-c]pyridin-7-yl)-1H-pyrazol-1-yl)methyl dihydrogen phosphate]",–,–,–,showed the tumor-reducing effect,enhanced,5 out of 9,enhanced,enhanced,suppressed tumor growth
